Assay results taken from US11046699B2, “Pyrazolo-pyrimidin-amino-cycloalkyl compounds and their therapeutic uses” (RAPT THERAPEUTICS, INC., priority 2018, dated 2021).

What follows are molecules tested against GCN2 (Homo sapiens, UniProt Q9P2K8) (assay: GCN2 enzymatic endpoint assay: phosphorylation of GFP-eIF2α measured by TR-FRET (Lanthascreen)). Conditions: GCN2 biochemical IC50; 4 nM GCN2, 2 μM ATP, 80 nM GFP-eIF2α, 90 min RT; read-out: GCN2 activity.
Format: biochemical
Summary of the method: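 Kinase activity is measured as phosphorylation of GFP-labelled eIF2α (80 nM) with ATP at 2 μM. Incubation runs 90 minutes at room temperature before EDTA quench and terbium-antibody detection.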

Chain of GCN2 (Q9P2K8 whole entry): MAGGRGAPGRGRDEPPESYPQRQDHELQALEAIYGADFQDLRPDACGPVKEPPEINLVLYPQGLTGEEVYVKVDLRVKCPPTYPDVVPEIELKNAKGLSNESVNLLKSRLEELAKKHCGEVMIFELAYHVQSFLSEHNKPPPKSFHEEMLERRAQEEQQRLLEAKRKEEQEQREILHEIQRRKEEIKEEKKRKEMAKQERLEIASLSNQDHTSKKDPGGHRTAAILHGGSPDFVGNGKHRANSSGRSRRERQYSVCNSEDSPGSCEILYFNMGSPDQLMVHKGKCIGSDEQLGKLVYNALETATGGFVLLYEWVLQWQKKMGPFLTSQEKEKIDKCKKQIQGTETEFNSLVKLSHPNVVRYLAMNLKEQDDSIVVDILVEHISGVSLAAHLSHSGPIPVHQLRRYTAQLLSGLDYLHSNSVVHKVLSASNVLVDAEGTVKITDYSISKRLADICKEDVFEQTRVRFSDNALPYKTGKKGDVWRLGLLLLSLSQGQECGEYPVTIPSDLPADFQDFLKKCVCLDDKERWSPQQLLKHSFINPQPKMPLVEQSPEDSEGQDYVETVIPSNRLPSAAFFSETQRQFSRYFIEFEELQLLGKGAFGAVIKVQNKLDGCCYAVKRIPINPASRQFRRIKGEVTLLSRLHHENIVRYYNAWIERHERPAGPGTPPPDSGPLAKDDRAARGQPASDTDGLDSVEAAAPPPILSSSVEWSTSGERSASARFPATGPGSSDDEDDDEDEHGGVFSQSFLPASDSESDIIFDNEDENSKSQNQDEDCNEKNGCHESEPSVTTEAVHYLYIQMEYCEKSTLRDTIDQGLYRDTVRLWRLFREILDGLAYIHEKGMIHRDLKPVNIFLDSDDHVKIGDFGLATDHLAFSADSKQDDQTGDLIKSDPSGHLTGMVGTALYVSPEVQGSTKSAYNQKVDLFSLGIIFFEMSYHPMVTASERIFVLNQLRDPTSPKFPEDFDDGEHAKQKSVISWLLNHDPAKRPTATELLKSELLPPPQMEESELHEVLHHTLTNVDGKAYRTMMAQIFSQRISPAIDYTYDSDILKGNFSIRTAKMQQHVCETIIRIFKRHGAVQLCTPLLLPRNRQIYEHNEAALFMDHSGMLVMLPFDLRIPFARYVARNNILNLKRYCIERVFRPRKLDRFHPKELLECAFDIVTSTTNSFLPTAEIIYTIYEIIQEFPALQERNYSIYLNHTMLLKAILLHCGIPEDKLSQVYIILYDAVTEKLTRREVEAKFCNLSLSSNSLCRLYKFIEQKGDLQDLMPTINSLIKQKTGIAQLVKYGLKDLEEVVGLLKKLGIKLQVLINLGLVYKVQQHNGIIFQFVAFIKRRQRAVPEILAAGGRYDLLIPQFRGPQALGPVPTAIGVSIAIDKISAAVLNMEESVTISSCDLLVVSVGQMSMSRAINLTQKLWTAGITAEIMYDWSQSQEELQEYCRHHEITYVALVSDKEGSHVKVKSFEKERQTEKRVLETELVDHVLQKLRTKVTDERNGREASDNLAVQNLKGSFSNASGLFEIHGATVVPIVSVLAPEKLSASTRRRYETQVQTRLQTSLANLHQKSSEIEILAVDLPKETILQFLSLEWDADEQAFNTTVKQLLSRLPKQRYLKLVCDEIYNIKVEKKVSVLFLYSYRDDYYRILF

| IC50 [nM] | SMILES |
| --- | --- |
| < 25 | CNC(=O)[C@]1(C)CC[C@@H](Nc2ncc3c(Br)nn(-c4cc(CNS(C)(=O)=O)c5ncccc5c4)c3n2)C1 [Example 33, (1R,3R)-3-((3-bromo-1-(8-(methylsulfonamidomethyl)quinolin-6-yl)-1H-pyrazolo[3,4-d]pyrimidin-6-yl)amino)-N,1-dimethylcyclopentane-1-carboxamide; 2,2,2-trifluoroacetic acid] |
| 25 to 200 | Cc1nnc(-c2ccc(-n3nc(Br)c4cnc(N[C@@H]5CC[C@@](C)(C(N)=O)C5)nc43)cc2)s1 [Example 60, (1R,3R)-3-((3-bromo-1-(4-(5-methyl-1,3,4-thiadiazol-2-yl)phenyl)-1H-pyrazolo[3,4-d]pyrimidin-6-yl)amino)-1-methylcyclopentane-1-carboxamide] |

The next lines start with the molecule.

| SMILES | IC50 [nM] |
| --- | --- |
| Brc1nn(-c2ccc3ncccc3c2)c2nc(N[C@@H]3CCC(N4CCOCC4)C3)ncc12 (mixture of isomers) [Example 7, 3-bromo-N-(3-morpholinocyclopentyl)-1-(quinolin-6-yl)-1H-pyrazolo[3,4-d]pyrimidin-6-amine] | 25 to 200 |
| C[C@H](N)c1cc(Cl)cc(-n2nc(Br)c3cnc(N[C@@H]4CC[C@@](C)(O)C4)nc32)c1 [Example 75, (1R,3R)-3-((1-(3-((S)-1-aminoethyl)-5-chlorophenyl)-3-bromo-1H-pyrazolo[3,4-d]pyrimidin-6-yl)amino)-1-methylcyclopentan-1-ol] | 25 to 200 |
| COCCC(=O)N[C@H]1C[C@H](Nc2ncc3c(Br)nn(-c4ccc5ncccc5c4)c3n2)C1 [Example 3, N-((1r,3r)-3-((3-bromo-1-(quinolin-6-yl)-1H-pyrazolo[3,4-d]pyrimidin-6-yl)amino)cyclobutyl)-3-methoxypropanamide] | 500 to 1000 |

Same assay, conditions: tested as described in Example 77; compound and/or hydrochloride, dihydrochloride or trifluoroacetic acid salt; read-out: IC 50 Activity

| IC50 [nM] | SMILES |
| --- | --- |
| 25 to 200 | CNC(=O)[C@]1(C)CC[C@@H](Nc2ncc3c(Br)nn(-c4ccc5c(c4)CN(C(=O)C4CNC4)C5)c3n2)C1 [(1R,3R)-3-[[1-[2-(azetidine-3-carbonyl)isoindolin-5-yl]-3-bromo-pyrazolo[3,4-d]pyrimidin-6-yl]amino]-N,1-dimethyl-cyclopentanecarboxamide] |
| 25 to 200 | CNC(=O)[C@]1(C)CCC(Nc2ncc3c(Br)nn(-c4ccc5c(c4)NC(=O)CC5)c3n2)C1 (stereo partly drawn) [(1R)-3-[[3-bromo-1-(2-oxo-3,4-dihydro-1H-quinolin-7-yl)pyrazolo[3,4-d]pyrimidin-6-yl]amino]-N,1-dimethyl-cyclopentane-carboxamide] |
| 25 to 200 | CNC(=O)[C@]1(C)CC[C@@H](Nc2ncc3c(Br)nn(-c4ccc(-c5ncco5)c(OCC5CNC5)c4)c3n2)C1 [(1R,3R)-3-[[1-[3-(azetidin-3-ylmethoxy)-4-oxazol-2-yl-phenyl]-3-bromo-pyrazolo [3,4-d]pyrimidin-6-yl]amino]-N,1-dimethyl-cyclopentanecarboxamide] |
| 25 to 200 | CNC(=O)[C@]1(C)CC[C@@H](Nc2ncc3c(Br)nn(-c4ccc5nc(N)nc(N)c5c4)c3n2)C1 [(1R,3R)-3-[[3-bromo-1-(2,4-diamino-quinazolin-6-yl)pyrazolo[3,4-d]pyrimidin-6-yl]amino]-N,1-dimethyl-cyclopentane-carboxamide; 2,2,2-trifluoroacetic acid] |
| 25 to 200 | CNC(=O)[C@]1(C)CC[C@@H](Nc2ncc3c(Br)nn(-c4ccc(-c5nnc(C)s5)nc4)c3n2)C1 |
| 25 to 200 | CNC(=O)C1(C)CC[C@@H](Nc2ncc3c(Br)nn(-c4cc(CO)cc(OC)c4)c3n2)C1 (mixture of isomers) |
| 25 to 200 | CNC(=O)C1(C)CC[C@@H](Nc2ncc3c(Br)nn(-c4cc(C)cc(CO)c4)c3n2)C1 (stereo partly drawn) [(3R)-3-[[3-bromo-1-[3-(hydroxymethyl)-5-methyl-phenyl]pyrazolo[3,4-d]pyrimidin-6-yl]amino]-N,1-dimethyl-cyclopentanecarboxamide] |
| 25 to 200 | CNC(=O)[C@]1(C)CC[C@@H](Nc2ncc3c(Br)nn(-c4cc(CCN)c5ncc(C#N)cc5c4)c3n2)C1 [(1R,3R)-3-[[1-[8-(2-aminoethyl)-3-cyano-6-quinolyl]-3-bromo-pyrazolo[3,4-d]pyrimidin-6-yl]amino]-N,1-dimethyl-cyclopentane-carboxamide] |
| < 25 | CNC(=O)[C@]1(C)CC[C@@H](Nc2ncc3c(Br)nn(-c4ccc(-c5nnc(C(C)(C)N)o5)c(C#N)c4)c3n2)C1 [(1R,3R)-3-[[1-[4-[5-(1-amino-1-methyl-ethyl)-1,3,4-oxadiazol-2-yl]-3-cyano-phenyl]-3-bromo-pyrazolo[3,4-d]pyrimidin-6-yl]amino]-N,1-dimethyl-cyclopentanecarboxamide] |
| 25 to 200 | Cc1nnc(-c2ccc(-n3nc(Br)c4cnc(N[C@@H]5CC[C@@](C)(CO)C5)nc43)cc2CCC#N)s1 [3-[5-[3-bromo-6-[[(1R,3R)-3-(hydroxy-methyl)-3-methyl-cyclopentyl]amino]pyrazolo[3,4-d]pyrimidin-1-yl]-2-(5-methyl-1,3,4-thiadiazol-2-yl)phenyl] propanenitrile] |

Continued, molecule first:

| SMILES | IC50 [nM] |
| --- | --- |
| N#Cc1cc(-n2nc(Br)c3cnc(N[C@@H]4CC[C@@H](C(=O)N[C@@H]5CCNC5)C4)nc32)cc2cccnc12 [(1R,3R)-3-((3-bromo-1-(8-cyanoquinolin-6-yl)-1H-pyrazolo[3,4-d]pyrimidin-6-yl)amino)-N-((R)-pyrrolidin-3-yl)cyclopentane-1-carboxamide] | < 25 |
| COCCN(C)C(=O)[C@]1(C)CC[C@@H](Nc2ncc3c(Br)nn(-c4cc(F)c5ncccc5c4)c3n2)C1 [(1R,3R)-3-[[3-bromo-1-(8-fluoro-6-quinolyl)pyrazolo[3,4-d]pyrimidin-6-yl]amino]-N-(2-methoxyethyl)-N,1-dimethyl-cyclopentane-carboxamide] | < 25 |
| CNC(=O)[C@]1(C)CC[C@@H](Nc2ncc3c(Br)nn(-c4ccc(-c5nnc(C(C)(C)O)s5)cc4)c3n2)C1 | 25 to 200 |
| CNC(=O)[C@]1(C)CC[C@@H](Nc2ncc3c(Br)nn(-c4cc(Cl)c(F)c(CC#N)c4)c3n2)C1 | 25 to 200 |
| CC[C@H](N)c1cc(Cl)cc(-n2nc(Br)c3cnc(N[C@@H]4CC[C@@](C)(C(=O)NC)C4)nc32)c1 | 25 to 200 |
| CNC(=O)[C@]1(C)CC[C@@H](Nc2ncc3c(Br)nn(-c4cc(Cl)cc(CN=S(C)(=O)O)c4)c3n2)C1 | 25 to 200 |
| CNc1ncc2cc(-n3nc(Br)c4cnc(N[C@@H]5CCC(C)(O)C5)nc43)ccc2n1 (some centres unmarked) | 25 to 200 |
| CNC(=O)[C@]1(O)CC[C@@H](Nc2ncc3c(Br)nn(-c4cc(F)c5ncccc5c4)c3n2)C1 [(1S,3R)-3-[[3-bromo-1-(8-fluoro-6-quinolyl)pyrazolo[3,4-d]pyrimidin-6-yl]amino]-1-hydroxy-N-methyl-cyclopentanecarboxamide] | 25 to 200 |
| CNC(=O)[C@]1(C)CC[C@@H](Nc2ncc3c(Br)nn(-c4cc(Cl)cc([C@@H]5COC(=O)N5)c4)c3n2)C1 [(1R,3R)-3-[[3-bromo-1-[3-chloro-5-[(4R)-2-oxooxazolidin-4-yl]phenyl]pyrazolo[3,4-d]pyrimidin-6-yl]amino]-N,1-dimethyl-cyclopentanecarboxamide] | < 25 |
| CN1C(=O)CCC1CNC(=O)[C@@H]1CC[C@@H](Nc2ncc3c(Br)nn(-c4cc(C#N)c5ncccc5c4)c3n2)C1 (some centres unmarked) | < 25 |
| CNC(=O)[C@]1(CC(F)F)CC[C@@H](Nc2ncc3c(Br)nn(-c4cc(F)c5ncccc5c4)c3n2)C1 [(1R,3R)-3-[[3-bromo-1-(8-fluoro-6-quinolyl)pyrazolo[3,4-d]pyrimidin-6-yl]amino]-1-(2,2-difluoroethyl)-N-methyl-cyclopentane-carboxamide] | < 25 |
| COC1(C)CN(C(=O)[C@]2(C)CC[C@@H](Nc3ncc4c(Br)nn(-c5cc(F)c6ncccc6c5)c4n3)C2)C1 [[(1R,3R)-3-[[3-bromo-1-(8-fluoro-6-quinolyl)pyrazolo[3,4-d]pyrimidin-6-yl]amino]-1-methyl-cyclopentyl]-(3-methoxy-3-methyl-azetidin-1-yl)methanone] | < 25 |
| Fc1cc(-n2nc(Br)c3cnc(NC4CCOC4)nc32)cc2cccnc12 (centres unmarked) [3-bromo-1-(8-fluoro-6-quinolyl)-N-tetrahydrofuran-3-yl-pyrazolo[3,4-d] pyrimidin-6-amine] | 25 to 200 |
| N#Cc1cc(-n2nc(Br)c3cnc(N[C@@H]4CC[C@@H](C(=O)N5CCNC(=O)C5)C4)nc32)cc2cccnc12 [6-(3-bromo-6-(((1R,3R)-3-(3-oxopiperazine-1-carbonyl)cyclopentyl)amino)-1H-pyrazolo [3,4-d]pyrimidin-1-yl)quinoline-8-carbonitrile] | < 25 |
| CC[C@@H](N)c1cc(Cl)cc(-n2nc(Br)c3cnc(N[C@@H]4CC[C@@](C)(C(=O)NC)C4)nc32)c1 | < 25 |
| CN1CN(C(=O)[C@@]2(C)CC[C@@H](Nc3ncc4c(Br)nn(-c5cc(F)c6ncccc6c5)c4n3)C2)CC1=O [1-[(1S,3R)-3-[[3-bromo-1-(8-fluoro-6-quinolyl)pyrazolo[3,4-d]pyrimidin-6-yl]amino]-1-methyl-cyclopentanecarbonyl]-3-methyl-imidazolidin-4-one] | 25 to 200 |
| CNC(=O)[C@]1(C)CC[C@@H](Nc2ncc3c(Br)nn(-c4cc(Cl)cc([C@@H](C)N)c4)c3n2)C1 | < 25 |
| COCCNC(=O)[C@]1(C(C)C)CC[C@@H](Nc2ncc3c(Br)nn(-c4ccc(-c5nnc(C)s5)c(CCC#N)c4)c3n2)C1 [(1R,3R)-3-[[3-bromo-1-[3-(2-cyanoethyl)-4-(5-methyl-1,3,4-thiadiazol-2-yl)phenyl]pyrazolo[3,4-d]pyrimidin-6-yl]amino]-1-isopropyl-N-(2-methoxyethyl)cyclopentane-carboxamide] | 25 to 200 |
| O=C(NCCc1cnc[nH]1)[C@@H]1CC[C@@H](Nc2ncc3c(Br)nn(-c4cc(F)c5ncccc5c4)c3n2)C1 [(1R,3R)-N-(2-(1H-imidazol-5-yl)ethyl)-3-((3-bromo-1-(8-fluoroquinolin-6-yl)-1H-pyrazolo [3,4-d]pyrimidin-6-yl)amino)cyclopentane-1-carboxamide] | 25 to 200 |
| Cc1nnc(-c2ccc(-n3nc(Br)c4cnc(NC5CC(P(C)(C)=O)C5)nc43)cc2CCC#N)s1 (centres unmarked) [3-[5-[3-bromo-6-[(3-dimethylphosphoryl-cyclobutyl)amino]pyrazolo[3,4-d]pyrimidin-1-yl]-2-(5-methyl-1,3,4-thiadiazol-2-yl)phenyl]propanenitrile] | 25 to 200 |
